7 compounds from patent US5348941A, “Stabilizers for fibroblast growth factors” (Merck & Co., Inc., priority 1992, dated 1994) can be followed below.

The target of experiment [1] is T1, aFGF (Homo sapiens, UniProt P05230).
T1 construct: The recombinant derived, 140 amino add form is the preferred form of aFGF; N-terminal methionine (MetHaFGF); made in house; host or cells: microbial cells (preferred embodiment)
The experiment in a line: Copper-catalyzed oxidation of aFGF thiol groups. It is filed as biochemical. To be noted: for Cu Oxidation (% SH Lost in 10 Mins): ligand 3X by weight, sodium sulfate 120 mM, tetrapolyphosphate 10 mM. On the procedure:
Copper-catalyzed oxidation of aFGF is carried out in the following manner. Acidic FGF (about 80 μg/ml) is incubated in a 20 mM Tris, 0.15M potassium chloride, pH 8 solution containing about 20 μM cuptic chloride for varying periods of time at room temperature. The reaction was terminated by the addition of 100 mM EDTA in the same buffer. A solution of about 0.7 ml of 0.25M Tris (about pH 8) containing about 2 mM EDTA and about 7 M GuHC1 is then added followed by about 35 μl of 4 mg/ml of DTNB (Sigma). Samples were incubated for 30 minutes, filtered through a 0.22 micron filter and the optical density measured at about 412 nm to determine sulfhydryl content, Riddles et al., Meth. Enzymol. 9:49-60 (1983). Relative standard deviation of the obtained values during time course experiments is 12%.
Acidic FGF contains three free cysteine residues at positions […], 83 and 117 in the polypeptide chain. […] It has also been shown that the copper catalyzed oxidative formation of a disulfide bond in the wild-type aFGF inactivates the protein in an in vitro mitogenic assay, Ortega et al., J. Biol. Chem. 266:5842-5846 (1991). Therefore, it was of interest to determine the extent to which heparin can stabilize aFGF against inactivation by oxidation. […] Samples contained 80 μg/ml aFGF with (a) 3X heparin by weight, (b) 0.1X heparin by weight and (c) buffer alone. As heparin was introduced and its concentration increased, the rate of copper-catalyzed oxidation decreased. For example, after 20 minutes, greater than 95% of the cysteine residues of aFGF are protected from oxidation with 3X heparin. FIG. 4B illustrates the fraction of remaining reactive thiol groups after a 10-minute incubation with cupric chloride as a function of heparin concentration.
Some aggregation of aFGF occurs under the conditions of these experiments presumably due to at least partial intermolecular disulfide formation. Thus, these measurements could simply be a measurement of the loss of solubility induced by copper association with aFGF. Several experiments, however, argue against this possibility. First, previous work has shown that at dilute protein concentration, copper does indeed catalyze oxidation of thiol groups of aFGF, Ortega et al., J. Biol. Chem. 266:5842-5846 (199 1 ). Second, as a control experiment, the copper-catalyzed oxidation of aFGF was carded out in a buffer containing 6 M GuHCl. Under these denaturing conditions, nearly 100% of the thiol groups in solution were lost after 10 minutes without visible aggregation. […] Regardless of the precise mechanism, copper addition is a distinct mechanism of inactivation compared to thermal stress.
Similar protection against oxidation experiments were carried out with other negatively charged compounds with an excess of ligand (3X by weight except for sodium sulfate at 120 mM and tetrapolyphosphate at 10 mM) added to aFGF before copper catalyzed oxidation. As shown in the second column of Table 2, all of these agents at least partially protect the cysteine residues of aFGF from oxidation.
^(b) Percentage of aFGF thiols remaining in solution after 10 min
incubation with cupric chloride. Experimental conditions are described in
FIG. 10. All samples contained ligand at 3× (by weight) except
sodium sulfate (120 mM) and tetrapolyphosphate (10 mM).

The target in experiment [2] is T1, aFGF. Put plainly: Thermal denaturation (Tm) of aFGF by fluorescence spectroscopy. Type of experiment: biochemical. To be noted: for molar excess of ligand to aFGF required for 50% stabilization: FIG. 9; for Tm maximum of aFGF, fluorescence: saturating ligand, 100 μg/ml aFGF. The protocol: Fluorescence spectra are obtained with a Spex Fluorolog-2 spectrofiuorometer using a 1 mm pathlength cuvette. Band passes from 1-2 nm are employed with sample absorptivities maintained below 0.1 at 280 nm. The temperature is controlled either manually or automatically as described above. Reproducibility of thermal denaturation temperatures (Tm) is ± 2° C.
To more directly ascertain the effect of heparin on aFGF stability, the temperature-induced denaturation of aFGF as a function of heparin concentration was monitored by fluorescence spectroscopy. Fluorescence spectra were obtained with a Spex Fluorolog-2 spectrofiuorometer using a 1 mm pathlength cuvette. Band passes from 1-2 nm were employed with sample absorptivities maintained below 0.1 at 280 nm. The temperature was controlled either manually or automatically as described above. Reproducibility of thermal denaturation temperatures (Tm) was ±2° C. […] Experiments were carried out at 100 μg/ml protein (6.3 μM) in a PBS buffer at pH 7.2. Curve drawn through data points for clarity only.
Studies of the stabilization of aFGF by heparin are difficult to interpret because of the inherent heterogeneity of heparin preparations, Lane and Lindahl, Eds. Heparin, Chemical and Biological Properties, Clinical Applications, Edward Arnold, London (1989); Jackson, et al., Physiol. Rev. 71: 481-539 (1991). In order to better understand the polyanionic stabilization of aFGF, a series of well-defined fragments of heparin were examined for their ability to stabilize aFGF against thermal denaturation. These enzymatically prepared and purified fragments varied in size from a disaccharide to a decasaccharide. Each fragment was incubated with aFGF at a 1:1 weight ratio in a PBS buffer. The sample was then stressed by temperature and structural changes in aFGF were monitored by both circular dichroism and fluorescence spectroscopy. […] All samples contained 100 μg/ml aFGF (6.3 μM)in a PBS buffer (pH 7.2) with 100 μg/ml of each heparin fragment.
Since these fragments of heparin have a well-defined molecular weight, the molar ratio of aFGF to ligand during these thermal denaturation experiments can be calculated. The Tm of aFGF as a function of the molar concentration of the hexasaccharide was measured by fluorescence spectroscopy. Fluorescence spectra were obtained with a Spex Fluorolog-2 spectrofiuorometer using a 1mm pathlength cuvette. Band passes from 1-2 nm were employed with sample absorptivities maintained below 0.1 at 280 nm. The temperature was controlled either manually or automatically as described above. Reproducibility of thermal denaturation temperatures (Tm) was ±2° C.
Analogous to the heparin experiments illustrated in Example 1 (FIG. 3), aFGF thermal stability was monitored by fluorescence spectroscopy as a function of concentration for several other of the polyanions. […] All samples contained 100 μg/ml of aFGF (6.3 μM) in a PBS buffer at pH 7.2.

T1 sequence (P05230 16-155 limits assumed): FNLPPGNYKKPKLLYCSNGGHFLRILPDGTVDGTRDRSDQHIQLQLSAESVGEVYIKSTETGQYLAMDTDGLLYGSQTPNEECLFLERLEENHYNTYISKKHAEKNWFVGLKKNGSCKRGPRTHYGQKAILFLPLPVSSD

Regarding “low molecular weight heparin [Low MW heparin, reference compound]”, at aFGF [1], the “Cu Oxidation (% SH Lost in 10 Mins)” value is under 3%.

As for `O=P(O)(O)O[C@H]1[C@H](OP(=O)(O)O)[C@@H](OP(=O)(O)O)[C@H](OP(=O)(O)O)[C@@H](OP(=O)(O)O)[C@H]1OP(=O)(O)O` [Inositol hexaphosphate, inositol hexaphosphate], the “molar excess of ligand to aFGF required for 50% stabilization” value (from here on “molar excess … for 50% stabilization”) at aFGF [2] (fluorescence) is about 2. In addition, at aFGF [2] (PBS pH 7.2), the “Tm maximum of aFGF, fluorescence” value amounted to 60 °C. Moreover, the figures for the “Cu Oxidation (% SH Lost in 10 Mins)” value on aFGF [1] and at aFGF [1] (listed as inositol hexaphosphate) were under 3% and “less than 3%”, respectively.

With `O=S(=O)(O)OC1C(OS(=O)(=O)O)C(OS(=O)(=O)O)C(OS(=O)(=O)O)C(OS(=O)(=O)O)C1OS(=O)(=O)O` (stereo not shown) [Inositol hexasulfate, inositol hexasulfate], on aFGF [2] (fluorescence), the “molar excess … for 50% stabilization” value is recorded as about 3.5. The “Tm maximum of aFGF, fluorescence” value on aFGF [2] (PBS pH 7.2) is 53 °C. Further, the “Cu Oxidation (% SH Lost in 10 Mins)” value on aFGF [1] was 22%.

Take dextran sulfate: the “Cu Oxidation (% SH Lost in 10 Mins)” value at aFGF [1] is given as 7%.

Take heparin [reference compound]: the “thermal melting temperature (Tm) of aFGF, fluorescence” value on aFGF [2] (1/3X ligand by weight, PBS pH 7.2) was 59 °C; on aFGF [2] (3X ligand by weight, PBS pH 7.2) it was 61 °C. In addition, the “concentration of heparin necessary to obtain one-half the Tm maximum” value at aFGF [2] (fluorescence, PBS pH 7.2) is 0.1 X (by weight). Besides, the “Tm maximum of aFGF, fluorescence” value at aFGF [2] (PBS pH 7.2) came out at 61 °C. Moreover, the “cysteine residues of aFGF protected from oxidation” value at aFGF [1] (3X heparin, 20 minutes) was “greater than 95%”. In addition, the “stabilization against copper-catalyzed oxidation” value at aFGF [1] (10-minute incubation, 1/3 weight level of heparin) is given as “stabilization essentially complete at 1/3 weight levels of heparin”. In addition, the “Cu Oxidation (% SH Lost in 10 Mins)” value at aFGF [1] was under 3%.

Turning to `O=P(O)(O)OP(=O)(O)OP(=O)(O)OP(=O)(O)O` [Tetrapolyphosphate], at aFGF [2] (fluorescence), the “molar excess … for 50% stabilization” value is “approximately 6”. Moreover, on aFGF [2] (PBS pH 7.2), the “Tm maximum of aFGF, fluorescence” value turned out to be 50 °C. Besides, the “Cu Oxidation (% SH Lost in 10 Mins)” value on aFGF [1] is listed as under 3%.

Take sulfated β-cyclodextrin: the “molar excess … for 50% stabilization” value at aFGF [2] (fluorescence) is about 1.5. For the same compound, the “Tm maximum of aFGF, fluorescence” value on aFGF [2] (PBS pH 7.2) was determined as 56 °C. The “Cu Oxidation (% SH Lost in 10 Mins)” value on aFGF [1] is under 3%.
